Consider four compounds from patent US8835507B2, “Adamantane derivatives possessing anti-viral and anti-microbial activity” (priority 2012, dated 2014).

The test system of series [1] is Vaccinia virus, WR strain. Conditions: for TC50: toxic concentration in the Vaccinia virus screen; for activity against vaccinia virus (in words): summary of Table 1.
For a further series, the system named is anthrax. Put plainly: organism not typed. It counts as cell-based.
The subject of a further series is E. coli. Nature of the series: microbe, parasite or virus in culture. It counts as cell-based. Conditions: Escherichia coli.
In the next series the test system is plague. Nature of the series: organism not typed. It counts as cell-based.
The subject of a further series is B. anthracis (Ames). Put plainly: microbe, parasite or virus in culture. It counts as cell-based. Conditions: Bacillus anthracis.
In the next series the test system is Y. pestis (CO92). Nature of the series: microbe, parasite or virus in culture. It counts as cell-based. To be noted: Yersinia pestis.
The subject of a further series is B. mallei (ATCC 23344). Put plainly: microbe, parasite or virus in culture. It counts as cell-based. To be noted: Burkholderia mallei, ATCC23344.
In series [2] the test system is B. pseudomallei (ATCC 23342). Put plainly: microbe, parasite or virus in culture. It counts as cell-based. Conditions: Burkholderia pseudomallei, ATCC23342.
A further series concerns F. tularensis (SCHU4). Put plainly: microbe, parasite or virus in culture. It counts as cell-based. Conditions: Francisella tularensis.
For the next series, the system named is S. aureus (ATCC 29213). Nature of the series: Test C: MIC against S. aureus (ATCC 29213). It counts as cell-based. Conditions: Staphylococcus aureus, ATCC29213, CAMHB + IV.
Another series relates to E. coli (ATCC 25922). Put plainly: Test C: MIC against E. coli (ATCC 25922). It counts as cell-based.
In series [3] the test system is P. aeruginosa (ATCC 27853). Nature of the series: Test C: MIC against P. aeruginosa (ATCC 27853). To be noted: Pseudomonas aeruginosa, ATCC27853, P. aeruginosa (ATCC 27853). It counts as cell-based.
In series [4] the test system is Vaccinia virus, WR strain. Nature of the series: microbe, parasite or virus in culture. Conditions: Orthopoxvirus vaccinia.

≈ marks a conversion by molar mass, not a printed value. Read-outs that look alike come from different tables or passages of the source. Some results are limits rather than exact numbers.

Regarding `Nc1ccn(C[C@@H](CO)OCP(=O)(O)O)c(=O)n1` [Cidofir, reference compound], the “Comments (activity rating)” value in series [1] (Vaccinia virus, WR strain) is listed as “Inactive”. This compound also showed a TC50 in [1] greater than 100 µg/mL.
Take `C(CNC12CC3CC(CC(C3)C1)C2)NC12CC3CC(CC(C3)C1)C2` [Compound 6]: the MIC was 1 to 4 µg/mL (≈ 3.04 to 12.2 µM) against anthrax; 4 to 8 µg/mL (≈ 12.2 to 24.3 µM) against E. coli; 4 µg/mL (≈ 12.2 µM) against plague; 0.25 µg/mL (≈ 0.761 µM) with B. anthracis (Ames); no more than 0.06 µg/mL with Y. pestis (CO92); 2 µg/mL (≈ 6.09 µM) in the series on B. mallei (ATCC 23344). For the same compound, the MIC in [2] was 2 µg/mL (≈ 6.09 µM); in the series on F. tularensis (SCHU4) it was no more than 0.06 µg/mL; in the series with S. aureus (ATCC 29213), 1 µg/mL; in the series with E. coli (ATCC 25922) (CAMHB + IV), “≦0.06 ug/ml”; with E. coli (ATCC 25922) (Escherichia coli, ATCC25922, CAMHB, read-out: MIC) it was no more than 0.06 µg/mL; in series [3] (CAMHB) it was 2 µg/mL (≈ 6.09 µM). Moreover, in series [3] (CAMHB + IV), the MIC was determined as 4 µg/mL. Besides, the “Comments (activity rating)” value in series [1] (Vaccinia virus, WR strain) is “Active”. Besides, the “activity against vaccinia virus (in words)” value in series [1] was “moderate to high activity”. The same compound came in with a TC50 in [1] of 5.58 µg/mL (≈ 17 µM). Further, the figures for the IC50 (with Tacaribe virus; in the series with Pichinde virus; in series [4]) were 6 µg/mL (≈ 18.3 µM), 11 µg/mL (≈ 33.5 µM) and 0.32 µg/mL (≈ 0.974 µM), respectively.
Take `ClN(CCN(Cl)C12CC3CC(CC(C3)C1)C2)C12CC3CC(CC(C3)C1)C2` [Compound 7]: the “Comments (activity rating)” value in series [1] (Vaccinia virus, WR strain) is given as “Moderate”. Moreover, the “activity against vaccinia virus (in words)” value in [1] is listed as “moderate to high activity”. Also, in [1], the TC50 was 63.40 µg/mL (≈ 160 µM). In addition, the IC50 was 17 µg/mL (≈ 42.8 µM) in the series with Tacaribe virus, 3.4 µg/mL (≈ 8.55 µM) in the series on Pichinde virus and 6.37 µg/mL (≈ 16 µM) in series [4].
For the compound `NC(=O)c1ncn([C@@H]2O[C@H](CO)[C@@H](O)[C@H]2O)n1` [Ribivirin, reference compound], in [1] (Vaccinia virus, WR strain), the “Comments (activity rating)” value is given as “Moderate” and the concentration for half-maximal inhibition (IC50) was determined as 27.90 µg/mL (≈ 114 µM). The compound further had a TC50 in series [1] greater than 100 µg/mL.
